Literature values in paper PMC11053489 (Viruses, 2024).

Test system: SARS-CoV-2 with mutations in the RNA-dependent RNA polymerase gene
Settings: cited from earlier work

## CCC(CC)COC(=O)[C@H](C)N[P@](=O)(OC[C@H]1O[C@@](C#N)(c2ccc3c(N)ncnn23)[C@H](O)[C@@H]1O)Oc1ccccc1 [Remdesivir]
  increase in EC50 of resistant lineages: 2.5 to 10 fold
